Experimental data published in PubChem BioAssay (NCI).
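GI50: concentration for 50% inhibition of growth. At the TGI there is no net growth.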

Legend:
Assay in all cases: inhibition of tumour cell growth, NCI panel, 384-well format
[1] = tested on: BT-549 breast
[2] = tested on: MCF7 breast
[3] = tested on: SK-OV-3 ovarian
[4] = tested on: HS 578T breast
[5] = tested on: HOP-92 NSCLC
[6] = tested on: LOX IMVI melanoma
[7] = tested on: UACC-257 melanoma
[8] = tested on: SN12C renal
[9] = tested on: SNB-75 CNS
[10] = tested on: SR leukemia
[11] = tested on: NCI-H226 lung
[12] = tested on: SF-268 CNS
[13] = tested on: CAKI-1 renal
[14] = tested on: OVCAR-8 ovarian
[15] = tested on: M14 melanoma
[16] = tested on: MDA-MB-468 breast
[17] = tested on: DU-145 prostate
[18] = tested on: NCI-H23 lung
[19] = tested on: NCI-H460 NSCLC
[20] = tested on: SNB-19 CNS
[21] = tested on: CCRF-CEM leukemia
[22] = tested on: TK-10 renal
[23] = tested on: SW-620 colon
[24] = tested on: SK-MEL-28 melanoma
[25] = tested on: T-47D breast
[26] = tested on: MDA-MB-231 breast
[27] = tested on: K-562 leukemia
[28] = tested on: HCT-15 colon
[29] = tested on: MOLT-4 leukemia
[30] = tested on: IGROV1 ovarian
[31] = tested on: HOP-62 NSCLC
[32] = tested on: A498 renal
[33] = tested on: SF-539 CNS
[34] = tested on: MALME-3M melanoma
[35] = tested on: NCI/ADR-RES ovarian
[36] = tested on: HCC-2998 colon
[37] = tested on: NCI-H322M lung
[38] = tested on: COLO 205 colon
[39] = tested on: NCI-H522 lung
[40] = tested on: KM12 colon
[41] = tested on: UACC-62 melanoma
[42] = tested on: EKVX NSCLC
[43] = tested on: RPMI-8226 leukemia
[44] = tested on: MDA-MB-435 melanoma
[45] = tested on: HT29 colon
[46] = tested on: 786-0 renal
[47] = tested on: PC-3 prostate
[48] = tested on: OVCAR-3 ovarian
[49] = tested on: UO-31 renal
[50] = tested on: SK-MEL-5 melanoma
[51] = tested on: ACHN renal
[52] = tested on: U251 glioblastoma
[53] = tested on: OVCAR-5 ovarian
[54] = tested on: HL-60(TB) leukemia
[55] = tested on: SF-295 CNS
[56] = tested on: RXF 393 renal
[57] = tested on: OVCAR-4 ovarian
[58] = tested on: A549 NSCLC
[59] = tested on: HCT-116 colon

SMILES: O=C(NCC(F)(F)F)Nc1cccc(-c2cnc3cc(-c4ccc(F)cc4)ccn23)c1
- GI50 [1]: 324 nM
- TGI [1]: 2130 nM
- GI50 [2]: 804 nM
- TGI [2]: 12500 nM
- GI50 [3]: 631 nM
- TGI [3]: 7870 nM
- GI50 [4]: 655 nM
- TGI [4]: 2250 nM
- GI50 [5]: 1710 nM
- TGI [5]: 8880 nM
- GI50 [6]: 741 nM
- TGI [6]: 8310 nM
- GI50 [7]: 1850 nM
- TGI [7]: 14600 nM
- GI50 [8]: 756 nM
- TGI [8]: 4530 nM
- GI50 [9]: 376 nM
- TGI [9]: 2090 nM
- GI50 [10]: 148 nM
- TGI [10]: 309 nM
- GI50 [11]: 1030 nM
- TGI [11]: 8570 nM
- GI50 [12]: 1810 nM
- TGI [12]: 9050 nM
- GI50 [13]: 1110 nM
- TGI [13]: 12500 nM
- GI50 [14]: 2480 nM
- TGI [14]: 12100 nM
- GI50 [15]: 569 nM
- TGI [15]: 5670 nM
- GI50 [16]: 250 nM
- TGI [16]: 568 nM
- GI50 [17]: 3130 nM
- TGI [17]: 18400 nM
- GI50 [18]: 1020 nM
- TGI [18]: 3560 nM
- GI50 [19]: 408 nM
- TGI [19]: 10400 nM
- GI50 [20]: 1460 nM
- TGI [20]: 6950 nM
- GI50 [21]: 734 nM
- TGI [21]: 2030 nM
- GI50 [22]: 2210 nM
- TGI [22]: 13100 nM
- GI50 [23]: 433 nM
- TGI [23]: 10500 nM
- GI50 [24]: 2320 nM
- TGI [24]: 17900 nM
- GI50 [25]: 862 nM
- TGI [25]: 7450 nM
- GI50 [26]: 650 nM
- TGI [26]: 19300 nM
- GI50 [27]: 362 nM
- TGI [27]: 1200 nM
- GI50 [28]: 358 nM
- TGI [28]: 1610 nM
- GI50 [29]: 219 nM
- TGI [29]: 391 nM
- GI50 [30]: 1400 nM
- TGI [30]: 10500 nM
- GI50 [31]: 688 nM
- TGI [31]: 11000 nM
- GI50 [32]: 769 nM
- TGI [32]: 10300 nM
- GI50 [33]: 832 nM
- TGI [33]: 2540 nM
- GI50 [34]: 498 nM
- TGI [34]: 14500 nM
- GI50 [35]: 1510 nM
- TGI [35]: 3730 nM
- GI50 [36]: 705 nM
- TGI [36]: 9270 nM
- GI50 [37]: 3680 nM
- TGI [37]: 21200 nM
- GI50 [38]: 451 nM
- TGI [38]: 3530 nM
- GI50 [39]: 292 nM
- TGI [39]: 899 nM
- GI50 [40]: 400 nM
- TGI [40]: 11900 nM
- GI50 [41]: 559 nM
- TGI [41]: 12400 nM
- GI50 [42]: 1900 nM
- TGI [42]: 16800 nM
- GI50 [43]: 575 nM
- TGI [43]: 1830 nM
- GI50 [44]: 210 nM
- TGI [44]: 457 nM
- GI50 [45]: 367 nM
- TGI [45]: 1570 nM
- GI50 [46]: 1080 nM
- TGI [46]: 5810 nM
- GI50 [47]: 2300 nM
- TGI [47]: 10800 nM
- GI50 [48]: 484 nM
- TGI [48]: 2250 nM
- GI50 [49]: 4680 nM
- TGI [49]: 19500 nM
- GI50 [50]: 444 nM
- TGI [50]: 9920 nM
- GI50 [51]: 2790 nM
- TGI [51]: 12900 nM
- GI50 [52]: 1390 nM
- TGI [52]: 12200 nM
- GI50 [53]: 4040 nM
- TGI [53]: 25500 nM
- GI50 [54]: 321 nM
- TGI [54]: 853 nM
- GI50 [55]: 1130 nM
- TGI [55]: 4390 nM
- GI50 [56]: 1490 nM
- TGI [56]: 7290 nM
- GI50 [57]: 571 nM
- TGI [57]: 5640 nM
- GI50 [58]: 1080 nM
- TGI [58]: 12900 nM

SMILES: COc1ccc(-c2cc3c(C)nc(N)nc3n(C3CCC(OCCO)CC3)c2=O)cn1 (stereo not given)
- GI50 [1]: 114 nM
- TGI [1]: 630 nM
- GI50 [2]: 20.7 nM
- TGI [2]: 12700 nM
- GI50 [3]: 80.5 nM
- TGI [3]: 394 nM
- GI50 [4]: 42.9 nM
- TGI [4]: 235 nM
- GI50 [5]: 43.1 nM
- TGI [5]: 302 nM
- GI50 [6]: 222 nM
- TGI [6]: 1150 nM
- GI50 [8]: 82.3 nM
- TGI [8]: > 100000 nM
- GI50 [9]: 24 nM
- TGI [9]: 113 nM
- GI50 [10]: 106 nM
- TGI [10]: 304 nM
- GI50 [11]: 191 nM
- TGI [11]: 960 nM
- GI50 [12]: 231 nM
- TGI [12]: 1730 nM
- GI50 [14]: 245 nM
- TGI [14]: 6520 nM
- GI50 [15]: 97.8 nM
- TGI [15]: 4560 nM
- GI50 [16]: 26.7 nM
- TGI [16]: 146 nM
- GI50 [17]: 188 nM
- TGI [17]: 23800 nM
- GI50 [18]: 132 nM
- TGI [18]: 5990 nM
- GI50 [19]: 40.9 nM
- TGI [19]: 11600 nM
- GI50 [20]: 896 nM
- TGI [20]: 2260 nM
- GI50 [21]: 59.7 nM
- TGI [21]: 1150 nM
- GI50 [22]: 65.8 nM
- TGI [22]: 408 nM
- GI50 [23]: 315 nM
- TGI [23]: > 100000 nM
- GI50 [25]: 19.9 nM
- TGI [25]: 84.6 nM
- GI50 [26]: 229 nM
- TGI [26]: 2370 nM
- GI50 [28]: 89.8 nM
- TGI [28]: 12800 nM
- GI50 [29]: 31.8 nM
- TGI [29]: 160 nM
- GI50 [30]: 24.1 nM
- TGI [30]: 80.3 nM
- GI50 [31]: 178 nM
- TGI [31]: 1500 nM
- GI50 [33]: 185 nM
- TGI [33]: 1270 nM
- GI50 [34]: 24.7 nM
- TGI [34]: 143 nM
- GI50 [35]: 241 nM
- TGI [35]: 2270 nM
- GI50 [36]: 222 nM
- TGI [36]: 1670 nM
- GI50 [37]: 149 nM
- TGI [37]: 13300 nM
- GI50 [38]: 126 nM
- TGI [38]: 1350 nM
- GI50 [39]: 71.6 nM
- TGI [39]: 1200 nM
- GI50 [40]: 318 nM
- TGI [40]: 33200 nM
- GI50 [59]: 260 nM
- TGI [59]: 10500 nM
- GI50 [42]: 62.3 nM
- TGI [42]: 447 nM
- GI50 [43]: 28.7 nM
- TGI [43]: 105 nM
- GI50 [44]: 220 nM
- TGI [44]: 1610 nM
- GI50 [45]: 228 nM
- TGI [45]: 5150 nM
- GI50 [46]: 268 nM
- TGI [46]: 1530 nM
- GI50 [47]: 41.8 nM
- TGI [47]: 434 nM
- GI50 [48]: 53 nM
- TGI [48]: 318 nM
- GI50 [49]: 56.2 nM
- TGI [49]: 856 nM
- GI50 [50]: 88.2 nM
- TGI [50]: 261 nM
- GI50 [52]: 490 nM
- TGI [52]: 1980 nM
- GI50 [53]: 145 nM
- TGI [53]: 1750 nM
- GI50 [54]: 17.9 nM
- TGI [54]: 191 nM
- GI50 [55]: 45.5 nM
- TGI [55]: 257 nM
- GI50 [56]: 37 nM
- TGI [56]: 199 nM
- GI50 [57]: 90.2 nM
- TGI [57]: 854 nM
- GI50 [58]: 173 nM
- TGI [58]: 1100 nM
